Laboratory results: patent US8715754B2, “Chromobacterium bioactive compositions and metabolites” (Marrone Bio Innovations, Inc., priority 2010, dated 2014)

Experiments:
[1] = tested on: Cabbage Looper (Trichoplusia ni); experiment: whole plant or invertebrate; format: in vivo
Procedure: Toxicity of the compound of interest in fraction 1 (F1) was confirmed in an in vitro assay using 1st instar cabbage looper larvae as a test object.
Two hundred microliters of commercial cabbage looper diet was distributed in each well of a 96-well microplate. After the diet had solidified, 100 uL of solution containing 50 uL of extract (corresponding to four individual peaks found in fraction 1; H1-H4), 350 uL EtOH and 600 uL sterile DI water was pipetted in each well, after which the plate was dried using a hand-held fan. The amount of extract in each well was 10 micrograms. Each treatment was replicated eight times, and a mixture of pure ethanol and water was used as a negative control.
One test insect (1st instar larvae of cabbage looper) was placed in each well, and the plate was covered with an adhesive seal. The seal was punctured for aeration, and the sealed plate was incubated at 26° C. for four days.
The 96-well plate assay system described in the previous example was used to determine the concentration of pure violacein needed to kill 50% of the 1st instar cabbage looper larvae. Based on the data, violacein is a potent insecticide with an estimated LC50 value of 7*10^−6 micrograms per well for cabbage looper larvae in an in vitro diet-overlay assay.

[2] = tested on: Cabbage looper (Trichoplusia ni) or Beet armyworm (Spodoptera exigua); experiment: Screening of fractions and pure compounds in feeding assay; format: in vivo; details: HPLC-purified compounds
Procedure: The culture broth derived from the 10-L fermentation C. substugae in L-broth is extracted with Amberlite XAD-7 resin (Asolkar et al., 2006) by shaking the cell suspension with resin at 225 rpm for two hours at room temperature. The resin and cell mass are collected by filtration through cheesecloth and washed with DI water to remove salts. The resin, cell mass, and cheesecloth are then soaked for 2 h in acetone/methanol (50/50) after which the acetone/methanol is filtered and dried under vacuum using rotary evaporator to give the crude extract. The crude extract is then fractionated by using Sephadex LH 20 size exclusion chromatography (CH2Cl2/CH3OH; 50/50) to give 7 fractions (FIG. 1). These fractions are then concentrated to dryness using rotary evaporator and the resulting dry residues are screened for biological activity using a feeding assay with Cabbage looper (Trichoplusia ni) or Beet armyworm (Spodoptera exigua). The active fractions are then subjected to reversed phase HPLC (Spectra System P4000 (Thermo Scientific) to give pure compounds, which are then screened in above mentioned bioassays to locate/identify the active compounds. To confirm the identity of the compound, additional spectroscopic data such as LC/MS and NMR is recorded.

[3] = tested on: Cabbage Loopers, Trichoplusia ni; experiment: Synergy test on treated artificial diet, cabbage loopers; format: in vivo
Procedure: (§1) Synergy tests were performed by treating artificial diet in 96-well plates and feeding treated diet to neonate larvae. 100 μL of treatment were pipetted into multiple wells of each plate. […] The diet was fan-dried to remove excess moisture. Neonate Beet Armyworm, Spodoptera exigua, or Cabbage Loopers, Trichoplusia ni, were transferred into each well of the multi-well plate. Infested plates were covered with adhesive plate sealer and a single small hole was poked into the sealer over each well to allow for aeration. Plates were stored in an incubator at 26° C., 16 h light/8 h dark cycle for […]. On the third and fourth day after infesting, mortality was scored.
(§2) The determination of a synergistic, antagonistic, or additive interaction was determined using the methods from (Colby 1967). Due to variation in bioassays, it was determined that ratios between 0 and 0.9 would be considered antagonistic, 0.9-1.1 ratios would be additive, and ratios above 1.1 would be considered synergistic relationships.
MBI-203 synergy with insecticides against Cabbage Loopers was tested. Chlorantranilipole (marketed as Coragen®, Dupont), Bacillus thuringiensis var. kurstaki (Dipel®, Valent Biosciences), Spinosad (marketed as Entrust®, Dow Agro Sciences), Spirotetramet (marketed as Movento®, Bayer Crop Science) and Pyrethrum/pyrethrins (marketed as Pyganic®, Arbico Organics) were tested with MBI-203. As noted above, except where indicated, LC50 concentrations of MBI-203 and insecticides were used.

[4] = tested on: Beet Armyworm, Spodoptera exigua; experiment: Synergy test on treated artificial diet, beet armyworm; format: in vivo
Procedure: as §1, §2
MBI-203 synergy with insecticides against Beet Army Worm (BAW) was tested. Chlorantranilipole (marketed as Coragen®, Dupont), Bacillus thuringiensis var. kurstaki (Dipel®, Valent Biosciences), Spinosad (marketed as Entrust®, Dow Agro Sciences), Spirotetramet (marketed as Movento®, Bayer Crop Science) and Pyrethrum/pyrethrins (marketed as Pyganic®, Arbico Organics) were tested with MBI-203. As noted above, except where indicated, LC50 concentrations of MBI-203 and insecticides were used. […] Pyrethrum combinations with MBI-203 were antagonistic.

[5] = tested on: root knot nematode Meloidogyne sp.; experiment: Mini drench test, root galling of cucumber (Zeck's gall index); format: in vivo, Meloidogyne incognita; details: 20 ppm
Procedure: MBI-203 was tested for its intrinsic activity against the root knot nematode Meloidogyne sp. in two mini drench tests.
Specifically MBI-203 was tested in a greenhouse assay conducted in 45 ml pots. Cucumber seeds cv. Toshka were sown directly into pots filled with a sandy loam soil. Ten days later pots were each treated with 5 ml of a suspension. Hereafter, pots were inoculated with 3000 eggs of M. incognita. Four replicates were prepared for each treatment and rate. The trial was harvested fourteen days after trial application and inoculation. Root galling was assessed according to Zeck's gall index (Zeck, 1971). Specific conditions are set forth below in Table 3.

[6] = Trichoplusia ni, 96 h, read-out: % mortality Day 4

## O=C1NC(c2c[nH]c3ccc(O)cc23)=C/C1=C1\C(=O)Nc2ccccc21 (single isomer, unassigned) [Violacein, violacein]
[1]; [6]
  mortality at 1e-06 µg/disc: 14.2%
  mortality at 1e-05 µg/disc: 71.4%
  mortality at 0.0001 µg/disc: 100%
  mortality at 0.001 µg/disc: 100%
  mortality at 0.01 µg/disc: 100%
  mortality at 0.1 µg/disc: 100%
  mortality at 1 µg/disc: 100%
  mortality at 10 µg/disc: 100%
[1]; in vivo
  estimated LC50: 7*10^−6 micrograms per well
[2]
  activity in feeding bioassay (active compound): active

## CNC(=O)c1cc(Cl)cc(C)c1NC(=O)c1cc(Br)nn1-c1ncccc1Cl [Chlorantranilipole]
[3]; LC50 concentration
  Product alone Kill %: 3%
[4]; LC50 concentration
  Product alone Kill %: 9.1%

## CCOP(=O)(SC(C)CC)N1CCSC1=O (stereo not shown) [Fosthiazate]
[5]; Mini drench test no. 1
  control: 100%
[5]; Mini drench test no. 2
  control: 100%

## CCOC(=O)OC1=C(c2cc(C)ccc2C)C(=O)N[C@]12CC[C@@H](OC)CC2 [Spirotetramet]
[3]; LC50 concentration
  Product alone Kill %: 23.8%
[3]; Spirotetramet 0.5X LC50
  Product alone Kill %: 41.5%
[4]; Spirotetramet 0.53X LC50
  Product alone Kill %: 42.9%
[4]; Spirotetramet 1.4X LC50
  Product alone Kill %: 77.5%

## O=C1NC(c2c[nH]c3ccccc23)=C/C1=C1\C(=O)Nc2ccccc21 [deoxyviolacein (3), deoxyviolacein]
[2]
  activity in feeding bioassay (active compound): active

## Spinosad
[3]; LC50 concentration
  Product alone Kill %: 54.3%
[4]; LC50 concentration
  Product alone Kill %: 68.7%

## chromamide A
[2]
  activity in feeding bioassay (active compound): active
